We go through one compound from patent publication US20040191926A1 (priority 2001, published 2004).

Usually IC50 stands for the midpoint of a concentration-inhibition curve. What is called Ki is a measure of affinity in units of concentration, obtained from inhibition or displacement.

For one test, the target named is T1, CD45 (Homo sapiens, UniProt P08575).
T1 construct: The intracellular fragment of PTPa, LAR and CD45 containing both of the PTPase domains was cleaved off the fusion protein; GST (cleaved yes); made in house
T1 sequence (P08575 599-1306 limits assumed): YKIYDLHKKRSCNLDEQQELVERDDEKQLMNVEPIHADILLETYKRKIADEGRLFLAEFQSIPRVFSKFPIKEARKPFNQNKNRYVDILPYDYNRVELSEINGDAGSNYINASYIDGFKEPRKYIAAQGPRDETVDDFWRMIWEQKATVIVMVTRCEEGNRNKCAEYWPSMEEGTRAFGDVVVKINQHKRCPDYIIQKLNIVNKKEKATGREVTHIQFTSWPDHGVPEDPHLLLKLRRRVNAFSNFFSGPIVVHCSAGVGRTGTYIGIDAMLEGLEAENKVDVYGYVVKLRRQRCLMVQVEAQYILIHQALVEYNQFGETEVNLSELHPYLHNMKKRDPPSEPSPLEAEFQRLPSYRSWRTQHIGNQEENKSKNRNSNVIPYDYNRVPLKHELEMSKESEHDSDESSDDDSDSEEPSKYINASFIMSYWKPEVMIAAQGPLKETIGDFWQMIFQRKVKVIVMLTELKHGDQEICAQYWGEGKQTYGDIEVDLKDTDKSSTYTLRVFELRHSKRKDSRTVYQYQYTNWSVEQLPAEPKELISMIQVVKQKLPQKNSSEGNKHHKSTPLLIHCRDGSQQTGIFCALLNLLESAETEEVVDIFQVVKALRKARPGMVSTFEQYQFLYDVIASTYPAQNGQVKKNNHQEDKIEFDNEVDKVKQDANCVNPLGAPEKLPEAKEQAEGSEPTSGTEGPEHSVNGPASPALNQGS
The test is described as follows: Phosphatase panel, pNPP assay. In kind it is biochemical. The settings on record: at 10 μM.

Another test addresses T2, Cdc25A (Homo sapiens, UniProt P30304).
T2 sequence (P30304 1-524): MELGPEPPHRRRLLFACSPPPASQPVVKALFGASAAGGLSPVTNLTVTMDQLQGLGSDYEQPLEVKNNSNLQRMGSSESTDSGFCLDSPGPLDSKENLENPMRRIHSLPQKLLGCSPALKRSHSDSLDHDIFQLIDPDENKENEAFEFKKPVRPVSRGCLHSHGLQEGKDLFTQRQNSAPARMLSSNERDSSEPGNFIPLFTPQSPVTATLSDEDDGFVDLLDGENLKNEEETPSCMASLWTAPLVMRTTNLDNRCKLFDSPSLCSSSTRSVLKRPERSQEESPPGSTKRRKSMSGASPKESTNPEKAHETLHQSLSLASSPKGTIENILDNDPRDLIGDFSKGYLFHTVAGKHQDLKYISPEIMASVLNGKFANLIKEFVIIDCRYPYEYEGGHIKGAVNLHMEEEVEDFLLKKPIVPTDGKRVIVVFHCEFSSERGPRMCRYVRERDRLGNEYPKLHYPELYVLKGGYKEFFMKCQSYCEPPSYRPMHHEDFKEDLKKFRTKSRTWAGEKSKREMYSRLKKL
The test is described as follows: Phosphatase panel, pNPP assay. The conditions noted are these: at 10 μM. The class given is biochemical.

The target of a further test is T3, SHP1 (Homo sapiens, UniProt P29350).
T3 construct: the catalytic domains of SHP1 and SHP2 were expressed and purified as (His)6-fusion proteins; (His)6; made in house
T3 sequence (P29350 244-515 limits assumed): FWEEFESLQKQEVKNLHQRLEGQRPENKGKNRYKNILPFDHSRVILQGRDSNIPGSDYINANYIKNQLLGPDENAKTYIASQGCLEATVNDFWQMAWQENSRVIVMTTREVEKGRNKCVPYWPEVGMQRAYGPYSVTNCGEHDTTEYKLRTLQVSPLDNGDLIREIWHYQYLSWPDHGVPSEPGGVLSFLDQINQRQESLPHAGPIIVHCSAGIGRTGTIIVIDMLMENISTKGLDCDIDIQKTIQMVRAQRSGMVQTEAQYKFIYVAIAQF
As to the kind of experiment: Phosphatase panel, pNPP assay. The conditions noted are these: 2 mM pNPP; read-out: Inhibition Potency, IC50. In kind it is biochemical.

In another test the target is T4, Yersinia PTP (Yersinia enterocolitica, UniProt P15273).
T4 construct: made in house; host or cells: E. coli
The test is described as follows: biochemical.

The next test concerns the target T5, PTPα (Homo sapiens, UniProt P18433).
T5 construct: The intracellular fragment of PTPa, LAR and CD45 containing both of the PTPase domains was cleaved off the fusion protein; GST (cleaved yes); made in house
The test is described as follows: Phosphatase panel, pNPP assay. In kind it is biochemical. The conditions noted are these: at 10 μM.

Another test has as its target T6, TCPTP (Homo sapiens, UniProt P17706).
T6 construct: catalytic domain (amino acid residues 1-288) of the human T cell PTPase (TCPTP); made in house
T6 sequence (P17706 1-288): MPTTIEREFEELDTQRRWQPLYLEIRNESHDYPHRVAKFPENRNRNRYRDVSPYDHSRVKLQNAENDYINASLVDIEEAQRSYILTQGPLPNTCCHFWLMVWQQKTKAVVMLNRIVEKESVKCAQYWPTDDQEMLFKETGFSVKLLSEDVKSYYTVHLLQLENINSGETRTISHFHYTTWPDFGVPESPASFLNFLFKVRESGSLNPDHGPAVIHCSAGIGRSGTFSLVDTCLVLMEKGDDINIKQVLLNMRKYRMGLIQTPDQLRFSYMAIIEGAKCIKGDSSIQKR
The test is described as follows: PTPase activity assay with pNPP substrate. The class given is biochemical. The conditions noted are these: pH 7.0, ionic strength 0.15 M, read-out: Inhibition Potency, Ki.

T4 sequence (P15273 whole entry): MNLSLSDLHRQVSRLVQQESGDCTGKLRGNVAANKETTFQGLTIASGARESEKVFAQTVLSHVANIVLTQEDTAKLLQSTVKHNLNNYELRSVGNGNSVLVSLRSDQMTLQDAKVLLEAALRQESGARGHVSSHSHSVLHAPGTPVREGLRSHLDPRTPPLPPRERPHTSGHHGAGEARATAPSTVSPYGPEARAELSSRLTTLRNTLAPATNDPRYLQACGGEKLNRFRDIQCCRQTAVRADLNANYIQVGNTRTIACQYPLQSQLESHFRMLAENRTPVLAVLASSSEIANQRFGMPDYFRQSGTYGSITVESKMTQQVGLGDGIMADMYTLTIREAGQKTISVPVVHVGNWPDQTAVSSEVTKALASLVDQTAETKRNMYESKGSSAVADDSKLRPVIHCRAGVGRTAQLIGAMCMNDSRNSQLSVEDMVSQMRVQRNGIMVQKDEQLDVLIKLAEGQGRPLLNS

`NC(=O)C(Cc1ccc(C(F)(F)P(=O)(O)O)cc1)NC(=O)C(CC(=O)O)NC(=O)Cc1ccc(C(F)(F)P(=O)(O)O)cc1` (stereo not drawn) [Compound 40]: the “Inhibition Potency” value at CD45, on Cdc25A and at PTPα was “No inhibition at 10 μM” in each case. Also, the IC50 at SHP1 is 11000 nM; at Yersinia PTP it was 1600 nM. In addition, the Ki at TCPTP amounted to 26 nM.
